The values below come from article PMC6700223 (Frontiers in Microbiology, 2019).

As a reminder, the IC50 is the concentration that inhibits the measured activity by half. Higher therefore signals weaker potency in that assay.

The format of data set [1] is physicochemical. Conditions: pH 7.2.
In data set [2] the test system is LASV GPC protein-mediated cell–cell fusion (293T/LASV/EGFP cells and Huh-7 cells). As to conditions: pH 5; for IC50: 12 h.

For `CC[C@H](C)[C@H](NC(=O)[C@H](CC(=O)O)NC(=O)[C@H](CC(=O)O)NC(=O)[C@H](CO)NC(=O)[C@H](Cc1ccccc1)NC(=O)[C@H](Cc1c[nH]cn1)NC(=O)[C@@H](NC(=O)[C@H](CCC(=O)O)NC(=O)[C@H](CC(N)=O)NC(=O)[C@H](CC(C)C)NC(=O)[C@H](Cc1ccc(O)cc1)NC(=O)[C@H](CO)NC(=O)CNC(=O)[C@H](CC(N)=O)NC(=O)[C@H](CO)NC(=O)[C@@H](NC(=O)[C@H](CC(C)C)NC(=O)[C@H](Cc1c[nH]c2ccccc12)NC(=O)[C@@H](N)CS)C(C)C)[C@@H](C)O)C(=O)N[C@@H](CCC(=O)O)C(=O)N[C@@H](CCC(N)=O)C(=O)N[C@@H](CCC(N)=O)C(=O)N[C@@H](C)C(=O)N[C@@H](CC(=O)O)C(=O)N[C@@H](CC(N)=O)C(=O)N[C@@H](CCSC)C(=O)N[C@H](C(=O)N[C@H](C(=O)N[C@@H](CCC(=O)O)C(=O)N[C@@H](CCSC)C(=O)N[C@@H](CC(C)C)C(=O)N[C@@H](CCC(N)=O)C(=O)N[C@@H](CCCCN)C(=O)N[C@@H](CCC(=O)O)C(=O)N[C@@H](Cc1ccc(O)cc1)C(=O)N[C@@H](CCSC)C(=O)N[C@@H](CCC(=O)O)C(=O)N[C@@H](CCCNC(=N)N)C(=O)N[C@@H](CCC(N)=O)C(=O)NCC(=O)N[C@@H](CCCCN)C(=O)N[C@H](C(=O)N1CCC[C@H]1C(=O)N[C@@H](CC(C)C)C(=O)NCC(=O)N[C@@H](CC(C)C)C(=O)N[C@H](C(=O)N[C@@H](CC(=O)O)C(=O)O)C(C)C)[C@@H](C)O)[C@@H](C)O)[C@@H](C)CC` [HR2-1], the α-helical ratio in data set [1] is 28%. Moreover, in data set [2], half-maximal inhibition (IC50) required 0.37 µM and the “Inhibition of cell–cell fusion at 20 μM” value is reported as “completely inhibit”.

For the compound `CC[C@H](C)[C@H](NC(=O)[C@H](CC(=O)O)NC(=O)[C@H](CC(=O)O)NC(=O)[C@H](CO)NC(=O)[C@H](Cc1ccccc1)NC(=O)[C@H](Cc1c[nH]cn1)NC(=O)[C@@H](NC(=O)[C@H](CCC(=O)O)NC(=O)[C@H](CC(N)=O)NC(=O)[C@H](CC(C)C)NC(=O)[C@H](Cc1ccc(O)cc1)NC(=O)[C@@H](N)CO)[C@@H](C)O)C(=O)N[C@@H](CCC(=O)O)C(=O)N[C@@H](CCC(N)=O)C(=O)N[C@@H](CCC(N)=O)C(=O)N[C@@H](C)C(=O)N[C@@H](CC(=O)O)C(=O)N[C@@H](CC(N)=O)C(=O)N[C@@H](CCSC)C(=O)N[C@H](C(=O)N[C@H](C(=O)N[C@@H](CCC(=O)O)C(=O)N[C@@H](CCSC)C(=O)N[C@@H](CC(C)C)C(=O)N[C@@H](CCC(N)=O)C(=O)N[C@@H](CCCCN)C(=O)N[C@@H](CCC(=O)O)C(=O)N[C@@H](Cc1ccc(O)cc1)C(=O)N[C@@H](CCSC)C(=O)N[C@@H](CCC(=O)O)C(=O)N[C@@H](CCCNC(=N)N)C(=O)N[C@@H](CCC(N)=O)C(=O)NCC(=O)N[C@@H](CCCCN)C(=O)N[C@H](C(=O)N1CCC[C@H]1C(=O)N[C@@H](CC(C)C)C(=O)O)[C@@H](C)O)[C@@H](C)O)[C@@H](C)CC` [HR2-2], in data set [2], the IC50 is 26.4 µM and the “Inhibition of cell–cell fusion at 20 μM” value is 30–40%.
